Assay results: US8946397B1, “Tagged nucleosides that leave no scar upon cleavage” (priority 2011, dated 2015)
Like-named read-outs stand apart in the source and are kept apart here. Values belong to the compound of their own block, whether it stands above or below them.

Legend:
[1] = cited from earlier work
[2] = Elimination of scar from triphosphate-aldehyde, analyzed by ion-exchange HPLC; type: physicochemical; settings: 55° C.
Description: To develop the reagents for elimination of scar triphosphate-aldehyde which was obtained from the treatment of compound 17 with 10 mM NaIO4 was used as model compound. A variety of conditions were explored that might eliminate the scar and the reaction was analyzed by ion-exchange HPLC (buffer A: water; buffer B: 1M NH4HCO3; gradient 0˜35% B over 20 min).

[3] = target: Deep Vent (exo-) (Pyrococcus sp., UniProt Q51334, D141A/DEL493-1029/E143A); assay: Standing start primer-extension assay; type: biochemical; settings: 30 min incubation, triphosphate 100 μM, Template AA
Chain of Deep Vent (exo-) (Q51334 other isoform, or with tags, fused parts or gaps D141A/E143A/DEL493-1029): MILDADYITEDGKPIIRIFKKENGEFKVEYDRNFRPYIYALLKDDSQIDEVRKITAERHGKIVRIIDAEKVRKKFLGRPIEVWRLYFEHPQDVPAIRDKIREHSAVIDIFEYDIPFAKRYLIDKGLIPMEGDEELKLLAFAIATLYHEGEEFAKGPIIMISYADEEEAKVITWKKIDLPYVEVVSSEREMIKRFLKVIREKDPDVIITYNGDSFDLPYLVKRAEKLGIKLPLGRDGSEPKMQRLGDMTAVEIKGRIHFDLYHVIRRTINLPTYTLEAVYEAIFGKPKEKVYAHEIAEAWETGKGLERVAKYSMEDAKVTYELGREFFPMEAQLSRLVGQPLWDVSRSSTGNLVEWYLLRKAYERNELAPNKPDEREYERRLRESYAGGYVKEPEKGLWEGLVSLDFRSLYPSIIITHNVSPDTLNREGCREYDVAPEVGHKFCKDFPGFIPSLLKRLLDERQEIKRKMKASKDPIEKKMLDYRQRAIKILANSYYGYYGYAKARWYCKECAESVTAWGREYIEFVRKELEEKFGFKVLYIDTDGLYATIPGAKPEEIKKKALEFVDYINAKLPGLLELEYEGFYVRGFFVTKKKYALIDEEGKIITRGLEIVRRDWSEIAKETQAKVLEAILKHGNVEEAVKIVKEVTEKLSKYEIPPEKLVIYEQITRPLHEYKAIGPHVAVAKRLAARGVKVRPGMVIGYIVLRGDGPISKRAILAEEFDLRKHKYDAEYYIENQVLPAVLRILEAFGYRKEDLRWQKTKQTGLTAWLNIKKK
Description: (§1) Thirteen DNA polymerases and reverse transcriptases performing well last time were tested again for their abilities to incorporate the triphosphate carrying a Bodipy 576/589 fluor (FIG. 6). The incubation time was extended to 30 min to see the boundaries for the enzymes to still consume all the primer s without leading to N+2 bands.
(§2) Gamma-^32P-labeled primer (2.5 pmol), cold primer (22.5 pmol) and template (30 pmol) were annealed by incubation at 95° C. for 5 min in various reaction buffer and slowly cooled to room temperature, followed by the addition of various DNA polymerase and reverse transcriptases. The extension was initiated by adding MJK's nucleoside triphosphates (MJ-008-065) (final concentration of 100 μM). After 30 min, the reaction was quenched by 10 mM EDTA in formamide loading buffer (20 μL); products were resolved by 14% PAGE.

[4] = target: T1, Bst DNA polymerases (Geobacillus stearothermophilus, UniProt P52026); assay: Standing start primer-extension assay; type: biochemical; settings: 30 min incubation, triphosphate 100 μM, Template AA
T1 sequence (P52026 1-876): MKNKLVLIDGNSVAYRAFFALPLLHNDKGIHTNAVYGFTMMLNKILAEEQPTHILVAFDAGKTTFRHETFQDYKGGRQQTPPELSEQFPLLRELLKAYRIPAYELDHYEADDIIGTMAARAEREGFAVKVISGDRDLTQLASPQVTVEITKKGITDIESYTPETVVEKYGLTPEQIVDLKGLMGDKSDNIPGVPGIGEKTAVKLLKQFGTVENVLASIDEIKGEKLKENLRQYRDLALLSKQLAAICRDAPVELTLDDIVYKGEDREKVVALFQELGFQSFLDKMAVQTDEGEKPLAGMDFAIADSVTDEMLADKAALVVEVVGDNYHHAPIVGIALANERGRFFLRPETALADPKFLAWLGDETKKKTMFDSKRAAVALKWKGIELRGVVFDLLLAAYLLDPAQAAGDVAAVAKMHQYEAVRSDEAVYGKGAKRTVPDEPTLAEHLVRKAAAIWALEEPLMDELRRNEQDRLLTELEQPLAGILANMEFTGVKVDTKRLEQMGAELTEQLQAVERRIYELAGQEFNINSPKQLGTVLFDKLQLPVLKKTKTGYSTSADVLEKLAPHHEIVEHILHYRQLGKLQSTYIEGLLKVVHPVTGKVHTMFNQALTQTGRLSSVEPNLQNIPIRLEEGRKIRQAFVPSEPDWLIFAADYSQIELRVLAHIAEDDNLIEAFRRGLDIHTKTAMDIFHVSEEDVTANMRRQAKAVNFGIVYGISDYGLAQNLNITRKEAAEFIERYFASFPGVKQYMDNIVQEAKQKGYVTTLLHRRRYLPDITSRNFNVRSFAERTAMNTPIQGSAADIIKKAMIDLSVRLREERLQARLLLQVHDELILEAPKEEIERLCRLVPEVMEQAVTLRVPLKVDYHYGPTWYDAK
Description: as §1, §2

[5] = system: DNA polymerases and reverse transcriptases; assay: Standing start primer-extension assay; type: biochemical
Description: FIG. 8. […] Subsequent removal of the side chain allows primer extension to continue. […] Incubation is for 2 min with the template primer combination.
as §1, §2

Compound: Nc1ncnc2c([C@@H]3O[C@H](CO)[C@@H](O)[C@H]3O)[nH]nc12 [formycin A]
pKa ([1]; deprotonation of N7): 9.6

Compound: O=c1[nH]cnc2c([C@@H]3O[C@H](CO)[C@@H](O)[C@H]3O)n[nH]c12 [formycin B]
pKa ([1]; deprotonation of N7): 10.4

Compound: Nc1ncc([C@@H]2O[C@H](CO)[C@@H](O)[C@H]2O)c(=O)[nH]1 [pseudoisocytidine]
pKa ([1]; deprotonation of N3): 9.0

Compound: O=c1[nH]cc([C@@H]2O[C@H](CO)[C@@H](O)[C@H]2O)c(=O)[nH]1 [pseudouridine]
pKa ([1]; cite of deprotonation unclear): 9.1

% Product ([2]; A: 100 mM glycine, pH 9.0, 10 min): 13%
% Product ([2]; A: 100 mM glycine, pH 9.0, 20 min): 20%
% Product ([2]; A: 100 mM glycine, pH 9.0, 30 min): 30%
% Product ([2]; A: 100 mM glycine, pH 10.0, 10 min): 35%
% Product ([2]; A: 100 mM glycine, pH 10.0, 20 min): 70%
% Product ([2]; A: 100 mM glycine, pH 10.0, 30 min): 87%
% Product ([2]; A: 100 mM glycine, pH 11.0, 10 min): 18%
% Product ([2]; A: 100 mM glycine, pH 11.0, 20 min): 52%
% Product ([2]; A: 100 mM glycine, pH 11.0, 30 min): 92%
% Product ([2]; B: 500 mM morpholine, pH 9.0, 10 min): 73%
% Product ([2]; B: 500 mM morpholine, pH 9.0, 20 min): 98%
% Product ([2]; B: 500 mM morpholine, pH 10.0, 10 min): 70%
% Product ([2]; B: 500 mM morpholine, pH 10.0, 20 min): 98%
% Product ([2]; B: 500 mM morpholine, pH 10.5, 10 min): 50%
% Product ([2]; B: 500 mM morpholine, pH 10.5, 20 min): 92%
% Product ([2]; B: 500 mM morpholine, pH 10.5, 30 min): 99%
% Product ([2]; B: 500 mM morpholine, pH 11.2, 10 min): 40%
% Product ([2]; B: 500 mM morpholine, pH 11.2, 20 min): 80%
% Product ([2]; B: 500 mM morpholine, pH 11.2, 30 min): 94%
% Product ([2]; C: 100 mM pyrrolidine, pH 9.0, 5 min): 32%
% Product ([2]; C: 100 mM pyrrolidine, pH 9.0, 10 min): 67%
% Product ([2]; C: 100 mM pyrrolidine, pH 10.0, 5 min): 90%
% Product ([2]; C: 100 mM pyrrolidine, pH 10.0, 10 min): 99%
% Product ([2]; C: 100 mM pyrrolidine, pH 11.0, 5 min): 99%
% Product ([2]; C: 100 mM pyrrolidine, pH 11.0, 10 min): 99%
Compound: O=CCCn1cc([C@H]2C[C@H](O)[C@@H](COP(=O)(O)OP(=O)(O)OP(=O)(O)O)O2)c(=O)[nH]c1=O [triphosphate-aldehyde]

Compound: BODIPY 576/589 Labeled 1-(5-amino-3,4-dihydroxypentyl)-2′-deoxy-pseudouridine-5′-triphosphate [Compound 18]
N+2 products [3]: only trace amount
N+2 products [4]: only trace amount
extension of a primer on a template calling for two consecutive T analogs ([5]; 2 min incubation, no 3′-ONH2 group (FIG. 8)): stops with certain of the indicated polymerases after the addition of one T analog
consume all the primer without leading to N+2 bands ([5]; thirteen enzymes, 30 min incubation, triphosphate 100 μM, Template AA): most of the polymerases and reverse transcriptases might achieve this goal
